Experimental findings from the NIST ThermoML archive (doi:10.1016/j.tca.2010.07.032) are described below.

For the series the following is noted: Liquid; Temperature-Programmed Gas Chromatography.

Where “and” joins values, the source holds several entries; their conditions need not be identical. Identical values can stand only once. Numbers after ± are expanded uncertainties.

On to `CCOP(=O)(OCC)OCC` [ethyl phosphate], for which the Normal boiling temperature is 215.89 ± 22 °C and 216.34 ± 22 °C. `CCCC(C)OP(=O)(OC(C)CCC)OC(C)CCC` (stereo not drawn) [tri-sec-amyl phosphate]: the Normal boiling temperature is 282.02 ± 28 °C and 282.74 ± 28 °C. As to `CCC(C)OP(=O)(OC(C)CC)OC(C)CC` (stereo not drawn) [tri-sec-butyl phosphate], the Normal boiling temperature was 260.80 ± 26 °C and 261.06 ± 26 °C. On to `CCCCCCOP(=O)(OCCCCCC)OCCCCCC` [trihexyl phosphate], for which the Normal boiling temperature was 366.12 ± 37 °C and 365.02 ± 36 °C. For `CC(C)COP(=O)(OCC(C)C)OCC(C)C` [triisobutyl phosphate] the value was 264.67 ± 26 °C and 265.70 ± 27 °C; for `CC(C)CCOP(=O)(OCCC(C)C)OCCC(C)C` [triisopentyl phosphate], 302.29 ± 30 °C and 302.37 ± 30 °C; for `COP(=O)(OC)OC` [trimethyl orthophosphate], 195.06 ± 20 °C and 194.97 ± 20 °C. For `CCCCCOP(=O)(OCCCCC)OCCCCC` [tripentyl phosphate] the value was 323.21 ± 32 °C and 326.62 ± 33 °C.
